Experimental data reported in patent US20130158098A1, “Alkenyl Substituted Cycloaliphatic Compounds as Chemical Inducers of Proximity” (priority 2010, published 2013).

Assay: ABA stability in human serum (luciferase biofunctional readout)
Assay type: in vitro ADME
Description: FIG. 3C provides the results of a stability test of ABA in cell culture conditions. CHO cells were pre-transfected with the activation and reporter DNA constructs for 24 hours. 100 μM ABA was then added to the culture and cells were assayed for luciferase activity after 10 hours. During the 10-hour incubation, the cell culture media were replaced with media containing freshly added ABA every 1, 2.5, 5 hour or no replacement. FIG. 4A illustrates the results of an experiment in which human serum pre-incubated ABA was used to induce luciferase transcription. ABA was incubated with pure non-heat inactivated human serum at 37° C. for indicated time period. ABA containing serum was then added to the CHO cell culture to a final 100 μM ABA concentration for 25 hours and cells were assayed for luciferase activity. The cells were pre-transfected with the activation and reporter DNA constructs for 24 hours. FIG. 4B illustrates the results of an experiment in which fetal bovine serum pre-incubated ABA was used to induce luciferase transcription. ABA was incubated with pure heat inactivated fetal bovine serum at 37° C. for indicated time period. ABA containing serum was then added to the CHO cell culture to a final 100 μM ABA concentration for 10 hours and cells were assayed for luciferase activity. The cells were pre-transfected with the activation and reporter DNA constructs for 24 hours.
In plants, ABA had been reported to be unstable due to active enzymatic degradation (Cutler, A. J. and Krochko, J. E. (1999) Formation and breakdown of ABA. Trends Plant Sci. 4, 472-478). […] The activity of residual ABA in the serum was measured by its ability to induce the transcriptional activation of the luciferase reporter in cells expressing the ABA-activator cassette. […] Using this assay, the bioavailability in mice was evaluated. […]

## CC1=CC(=O)CC(C)(C)C1(O)/C=C/C(C)=C/C(=O)O (stereo not drawn) [ABA, abscisic acid]
Pure human serum, 37° C., up to 48 hours
  reduction in ability to induce transcription of luciferase: no significant reduction
Pure non-heat inactivated human serum, 37° C.
  time ABA is stable in human serum: at least 46 hours
serum, over 48 hours
  stability in serum: stable
